The text below walks through data of patent US9809623B2, “α4β7 peptide monomer and dimer antagonists” (Protagonist Therapeutics, Inc., priority 2014, dated 2017).

One may read the half-life as the time needed for the level to fall by half in the phase considered. A lower half-life goes with fast loss. Broadly, the IC50 is the point on the concentration scale where inhibition reaches its midpoint.

One data set can be described thus: Plasma Stability Assay. In kind it is in vitro ADME. The following applies: rat, Table 4-C, t1/2. A digest of the protocol: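 Rat plasma at 37° C with gentle shaking, peptide added from 10 mM stock; samples taken at 0, 10, 30, 45, 60, 120 and 180 min and quenched 1:4 with acetonitrile/0.1% formic acid. After centrifugation, supernatants were mixed with internal standard peptide (1 ug/mL) and analysed by LC-MS.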

Data set [1] is described as follows: Cysteine/Cystine Redox Stability Assay. Type of data set: physicochemical. The following applies: Table 4-C; ORP where half of the oxidized peptide remains. The method, then: Peptides were diluted to 90 μM by adding 4.545 μl of a 10 mM peptide DMSO stock to 495.45 μl of 100 mM Tris-Cl, pH 7.5. Aliquots of […] were transferred to 8 wells down a column of a 96 well plate. 20 μl of 2.5 mM Cystine in 100 mM Tris-Cl, pH 7.5 was added to each well. Cysteine stock solutions in 100 mM Tris-Cl, pH 7.5 were prepared fresh at the following concentrations: 400 mM, 200 mM, 80 mM, 44 mM, 22 mM, 11 mM, 5.5 mM and blank. At time 0, 25 μl of each cysteine stock solution was added to the 55 μl of cystine/peptide solution, and the mixture was incubated at room temperature for 40 min. The samples were quenched by adding 20 μl of 5M acetic acid and analyzed by reverse phase HPLC. The fraction of oxidized peptide was calculated and plotted against the calculated oxidation reduction potential (ORP) as defined by the Nernst equation. The ORP where half of the oxidized peptide remains is shown below.

Another data set addresses α4β1 (Homo sapiens, UniProt P05556+P13612). The experiment in a line: α4β1-VCAM Cell Adhesion Assay (Jurkat E6.1 human cells). In kind it is cell-based. Set-up: host or cells: Jurkat E6.1 human T cells. The settings on record: Table 4-B; read-out: Cell Adhesion α4β1 IC50. The essentials: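 Jurkat E6.1 cells in DMEM with 0.1% BSA, 10 mM HEPES pH 7 and 1 mM MnCl2 were added (200,000/well) with serially diluted peptides to rh VCAM-1-Fc-coated wells (400 ng/well) for 30-45 min at 37 °C. Adherent cells after washing were quantified by MTT, absorbance 570 nm, with no-cell background subtracted for dose response.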

Molecules are shown by their SMILES. Numbered stars: 1 amine (or outer) side, 2 acyl side, 3 side chain; on linkers, the order of the positions; unused ones are H or OH. Bridge positions count the residues as written; N and C are the ends. Square brackets hold non-standard residues; d marks the D form. Peptide text beside a SMILES is read from it. I, II: the chains in the order shown. Phe(4-tBu) = CC(C)(C)c1ccc(C[C@H](N)C(=O)O)cc1; Diglycolyl = O=C(COCC(=O)[*:2])[*:1]; NMeR = CN[C@@H](CCCNC(=N)N)C(=O)O; β3hE = N[C@@H](CCC(=O)O)CC(=O)O; Pen = CC(C)(S)[C@H](N)C(=O)O

Chain of α4β1 (P13612 34-1032): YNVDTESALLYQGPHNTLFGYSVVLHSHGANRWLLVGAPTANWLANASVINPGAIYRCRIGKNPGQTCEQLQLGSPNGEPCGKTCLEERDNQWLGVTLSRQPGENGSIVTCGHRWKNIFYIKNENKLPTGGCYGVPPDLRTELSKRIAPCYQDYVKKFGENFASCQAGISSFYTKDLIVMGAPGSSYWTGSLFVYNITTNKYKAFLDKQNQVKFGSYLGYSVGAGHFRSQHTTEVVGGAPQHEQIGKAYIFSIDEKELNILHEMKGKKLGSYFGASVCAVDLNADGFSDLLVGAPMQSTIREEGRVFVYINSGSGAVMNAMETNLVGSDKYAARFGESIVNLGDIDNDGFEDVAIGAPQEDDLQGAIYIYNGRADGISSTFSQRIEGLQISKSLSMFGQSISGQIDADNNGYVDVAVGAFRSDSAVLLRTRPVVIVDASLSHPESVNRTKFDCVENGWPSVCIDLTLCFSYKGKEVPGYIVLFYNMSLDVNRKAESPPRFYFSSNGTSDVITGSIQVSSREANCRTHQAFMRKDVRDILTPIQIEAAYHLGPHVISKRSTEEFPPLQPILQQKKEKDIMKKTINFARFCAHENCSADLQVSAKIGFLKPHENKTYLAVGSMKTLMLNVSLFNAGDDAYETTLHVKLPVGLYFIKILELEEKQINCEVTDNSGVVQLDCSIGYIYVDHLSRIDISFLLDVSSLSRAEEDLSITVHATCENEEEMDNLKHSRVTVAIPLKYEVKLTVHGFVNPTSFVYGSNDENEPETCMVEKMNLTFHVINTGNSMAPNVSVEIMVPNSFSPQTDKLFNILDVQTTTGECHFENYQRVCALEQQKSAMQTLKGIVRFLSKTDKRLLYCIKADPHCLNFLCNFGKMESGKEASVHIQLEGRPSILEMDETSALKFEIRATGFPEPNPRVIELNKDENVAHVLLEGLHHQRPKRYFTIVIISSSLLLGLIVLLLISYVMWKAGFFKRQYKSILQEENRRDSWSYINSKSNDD
Chain of α4β1 (P05556 21-798): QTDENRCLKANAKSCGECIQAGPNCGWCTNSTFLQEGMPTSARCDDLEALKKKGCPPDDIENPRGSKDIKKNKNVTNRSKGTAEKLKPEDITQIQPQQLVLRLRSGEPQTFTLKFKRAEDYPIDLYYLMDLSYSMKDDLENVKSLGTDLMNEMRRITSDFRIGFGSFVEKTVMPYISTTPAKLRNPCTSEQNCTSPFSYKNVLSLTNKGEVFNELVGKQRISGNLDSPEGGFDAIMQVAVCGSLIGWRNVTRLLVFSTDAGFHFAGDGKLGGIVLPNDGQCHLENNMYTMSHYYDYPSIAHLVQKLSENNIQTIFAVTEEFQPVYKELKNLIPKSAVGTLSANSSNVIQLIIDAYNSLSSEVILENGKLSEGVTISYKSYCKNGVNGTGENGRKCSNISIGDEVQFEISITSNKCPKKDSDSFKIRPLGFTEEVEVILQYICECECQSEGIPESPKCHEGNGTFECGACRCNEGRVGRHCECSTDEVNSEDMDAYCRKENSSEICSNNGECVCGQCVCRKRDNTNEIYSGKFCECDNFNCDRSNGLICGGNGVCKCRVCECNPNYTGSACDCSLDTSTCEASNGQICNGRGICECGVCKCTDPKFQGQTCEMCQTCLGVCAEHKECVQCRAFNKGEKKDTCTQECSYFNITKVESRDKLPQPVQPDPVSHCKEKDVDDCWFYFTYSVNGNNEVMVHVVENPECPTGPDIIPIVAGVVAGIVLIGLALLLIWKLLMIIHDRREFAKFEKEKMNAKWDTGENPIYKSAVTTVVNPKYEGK

Turning to `CC(=O)N[C@@H]1C(=O)N(C)[C@@H](CCCNC(=N)N)C(=O)N[C@@H](CO)C(=O)N[C@@H](CC(=O)O)C(=O)N[C@@H]([C@@H](C)O)C(=O)N[C@@H](CC(C)C)C(=O)N[C@H](C(=O)N[C@@H](Cc2c[nH]c3ccccc23)C(=O)N[C@@H](CCC(=O)O)C(=O)N[C@H](CCCCNC(=O)COCC(=O)NCCCC[C@@H](NC(=O)[C@H](CCC(=O)O)NC(=O)[C@H](Cc2c[nH]c3ccccc23)NC(=O)[C@H]2NC(=O)[C@H](CC(C)C)NC(=O)[C@H]([C@@H](C)O)NC(=O)[C@H](CC(=O)O)NC(=O)[C@H](CO)NC(=O)[C@H](CCCNC(=N)N)N(C)C(=O)[C@@H](NC(C)=O)C(C)(C)SSC2(C)C)C(N)=O)C(N)=O)C(C)(C)SSC1(C)C` [compound 217, (Ac-Pen-N-Me-R-S-D-T-L-Pen-W-E-k-NH2)2-DIG] (I: Ac-[Pen][NMeR]SDTL[Pen]WE[dK]-NH2 / II: Ac-[Pen][NMeR]SDTL[Pen]WE[dK]-NH2; disulfide I:1-I:7, II:1-II:7 (inferred); linker I:10-II:10 via Diglycolyl (inferred)), in the data set “Plasma Stability Assay”, the half-life at 20 μM was above 2 h. Besides, the “Cys/CySS (mV)” value in data set [1] is reported as below −300 mV. The IC50 at α4β1 was above 100 µM.
`CC(=O)N[C@@H]1C(=O)N(C)[C@@H](CCCNC(=N)N)C(=O)N[C@@H](CO)C(=O)N[C@@H](CC(=O)O)C(=O)N[C@@H]([C@@H](C)O)C(=O)N[C@@H](CC(C)C)C(=O)N[C@H](C(=O)N[C@@H](Cc2ccc(C(C)(C)C)cc2)C(=O)N[C@@H](CCC(=O)O)CC(=O)N[C@H](CCCCNC(=O)COCC(=O)NCCCC[C@@H](NC(=O)C[C@H](CCC(=O)O)NC(=O)[C@H](Cc2ccc(C(C)(C)C)cc2)NC(=O)[C@H]2NC(=O)[C@H](CC(C)C)NC(=O)[C@H]([C@@H](C)O)NC(=O)[C@H](CC(=O)O)NC(=O)[C@H](CO)NC(=O)[C@H](CCCNC(=N)N)N(C)C(=O)[C@@H](NC(C)=O)C(C)(C)SSC2(C)C)C(N)=O)C(N)=O)C(C)(C)SSC1(C)C` [compound 218, [Ac-Pen-(N-Me-Arg)-Ser-Asp-Thr-Leu-Pen-Phe(4-tBu)-(β-homoGlu)-(D-Lys)-NH2]2-DIG] (I: Ac-[Pen][NMeR]SDTL[Pen][Phe(4-tBu)][β3hE][dK]-NH2 / II: Ac-[Pen][NMeR]SDTL[Pen][Phe(4-tBu)][β3hE][dK]-NH2; disulfide I:1-I:7, II:1-II:7; linker I:10-II:10 via Diglycolyl) registered a half-life at 20 μM in the data set “Plasma Stability Assay” above 6 h. Besides, the “Cys/CySS (mV)” value in data set [1] is on record as below −300 mV. In addition, at α4β1, the IC50 is above 100 µM.
